“And” between values parts separate entries of the source, which are not always exact repeats. Equal entries are not always repeated. Where two headings read alike, the source gives them in different places.
How the values were obtained:
[1] = test system: Male Rats; details: individual rats
Procedure: • 1) Solution MOR 3 mg/ul (the same Mor. […] 1) • 2) (+) Norketamine 3 mg/ml dose 3 mg/kg inj.
• TFL—intensity 40%, idle activity 5%, cut-off 10 sec.
• TFL—Intensity 40%, idle activity 5%, cut-off 10 sec.
• TFL—Intensity 40%, idle activity 5%, cut-off 10 seconds Solutions:

[2] = test system: NMDA receptor; details: Ebert et al., 1997; cited from earlier work
[3] = C. S. T. Aun, 1999, cited from earlier work

## CN1CC[C@]23c4c5ccc(O)c4O[C@H]2[C@@H](O)C=C[C@H]3[C@H]1C5 [Morphine, morphine]
[1]; Day 1, male rats 5-8, MOR 3 mg/kg + SAL or (+) Norket 3 mg/kg, 15 min after injection, listed as MOR
  TFL 15 min.: 3.24 s and 3.55 s
[1]; Day 1, male rats 5-8, MOR 3 mg/kg + SAL or (+) Norket 3 mg/kg, 30 min after injection, listed as MOR
  TFL 30 min.: 5.72 s and 6.2 s
[1]; Day 1, male rats 5-8, MOR 3 mg/kg + SAL or (+) Norket 3 mg/kg, 60 min after injection, listed as MOR
  TFL 60 min.: 1.93 s and 4.50 s
[1]; Day 1, male rats 5-8, MOR 3 mg/kg + SAL or (+) Norket 3 mg/kg, 120 min after injection, listed as MOR
  TFL 120 min.: 1.61 s and 5.44 s
[1]; Day 2, male rats 1-4, Mor 3 mg/kg & (−) Norketamine 3 mg/kg or saline, 15 min, cut-off 10 sec, listed as Mor
  TFL 15 min.: 2.03 s and 4.89 s
[1]; Day 2, male rats 1-4, Mor 3 mg/kg & (−) Norketamine 3 mg/kg or saline, 30 min, cut-off 10 sec, listed as Mor
  TFL 30 min.: 2.74 s and 7.26 s
[1]; Day 2, male rats 1-4, Mor 3 mg/kg & (−) Norketamine 3 mg/kg or saline, 60 min, cut-off 10 sec, listed as Mor
  TFL 60 min.: 1.94 s and 6.84 s
[1]; Day 2, male rats 1-4, Mor 3 mg/kg & (−) Norketamine 3 mg/kg or saline, 120 min, cut-off 10 sec, listed as Mor
  TFL 120 min.: 1.48 s and 5.37 s
[1]; Day 2, male rats 5-8, 3 mg/kg Mor & 3 mg/kg (+) Norketamine or saline, 15 min, cut-off 10 sec, listed as Mor
  TFL 15 min.: 3.41 s and 3.48 s
[1]; Day 2, male rats 5-8, 3 mg/kg Mor & 3 mg/kg (+) Norketamine or saline, 30 min, cut-off 10 sec, listed as Mor
  TFL 30 min.: 4.09 s and 3.22 s
[1]; Day 2, male rats 5-8, 3 mg/kg Mor & 3 mg/kg (+) Norketamine or saline, 60 min, cut-off 10 sec, listed as Mor
  TFL 60 min.: 4.03 s and 3.01 s
[1]; Day 2, male rats 5-8, 3 mg/kg Mor & 3 mg/kg (+) Norketamine or saline, 120 min, cut-off 10 sec, listed as Mor
  TFL 120 min.: 2.94 s and 2.12 s
[1]; second series, Day 1, male rats 1-4, 3 mg/kg Morphine & saline or 3 mg/kg (−) Norketamine, 15 min, cut-off 10 sec
  TFL 15 min.: 2.92 s and 1.82 s
[1]; second series, Day 1, male rats 1-4, 3 mg/kg Morphine & saline or 3 mg/kg (−) Norketamine, 30 min, cut-off 10 sec
  TFL 30 min.: 3.64 s and 2.36 s
[1]; second series, Day 1, male rats 1-4, 3 mg/kg Morphine & saline or 3 mg/kg (−) Norketamine, 60 min, cut-off 10 sec
  TFL 60 min.: 3.28 s and 3.30 s
[1]; second series, Day 1, male rats 1-4, 3 mg/kg Morphine & saline or 3 mg/kg (−) Norketamine, 120 min, cut-off 10 sec
  TFL 120 min.: 2.74 s and 1.92 s
[1]; second series, Day 1, male rats 5-8, 3 mg/kg Morphine & saline or 3 mg/kg (+) Norketamine, 15 min, cut-off 10 sec
  TFL 15 min.: 2.97 s and 2.88 s
[1]; second series, Day 1, male rats 5-8, 3 mg/kg Morphine & saline or 3 mg/kg (+) Norketamine, 30 min, cut-off 10 sec
  TFL 30 min.: 2.75 s and 3.86 s
[1]; second series, Day 1, male rats 5-8, 3 mg/kg Morphine & saline or 3 mg/kg (+) Norketamine, 60 min, cut-off 10 sec
  TFL 60 min.: 3.51 s and 3.69 s
[1]; second series, Day 1, male rats 5-8, 3 mg/kg Morphine & saline or 3 mg/kg (+) Norketamine, 120 min, cut-off 10 sec
  TFL 120 min.: 2.70 s and 2.17 s
[1]; second series, Day 2, male rats 5-8, 3 mg/kg Morphine & 3 mg/kg (+) Norketamine or saline, 15 min, cut-off 10 seconds
  TFL 15 min.: 2.25 s and 1.56 s
[1]; second series, Day 2, male rats 5-8, 3 mg/kg Morphine & 3 mg/kg (+) Norketamine or saline, 30 min, cut-off 10 seconds
  TFL 30 min.: 2.46 s and 1.97 s
[1]; second series, Day 2, male rats 5-8, 3 mg/kg Morphine & 3 mg/kg (+) Norketamine or saline, 60 min, cut-off 10 seconds
  TFL 60 min.: 3.83 s and 2.08 s
[1]; second series, Day 2, male rats 5-8, 3 mg/kg Morphine & 3 mg/kg (+) Norketamine or saline, 120 min, cut-off 10 seconds
  TFL 120 min.: 2.60 s and 2.24 s

## NC1(c2ccccc2Cl)CCCCC1=O (stereo not drawn) [Norketamine, 2-(2-chlorophenyl)-2-amino-cyclohexanone]
[2]
  binding to the NMDA receptor relative to S- and R-ketamine: less tightly than either S- or R-ketamine
[3]; speculated
  anesthetic and analgesic potency relative to ketamine: one third that of ketamine

## CN[C@]1(c2ccccc2Cl)CCCCC1=O [S-ketamine]
[3]
  potency relative to R-ketamine: twice as potent as R-ketamine

Source: patent publication US8710070B2, “Opioid-ketamine and norketamine codrug combinations for pain management” (University of Kentucky Research Foundation, priority 2008, dated 2014)
